Reference: patent US12070464B2, “Methods of treating myeloproliferative disorders” (priority 2019, dated 2024)
Like-named read-outs stand apart in the source and are kept apart here.

Experiments:
[1] = tested on: CD34+ cells isolated from the bone marrow of two healthy donors; test: Megakaryocyte differentiation and proliferation, alone and with ruxolitinib, 10 days (FACS); assay type: cell-based; conditions: 240 h
Text: The cells were then harvested for FACS analysis with live/dead stain and gating with CD34 (progenitor marker) and CD41a and CD42b (mature megakaryocyte markers).

myelofibrosis patients = conditions: cited from earlier work

N#CC[C@H](C1CCCC1)n1cc(-c2ncnc3[nH]ccc23)cn1 [Ruxolitinib, (R)-3-(4-(7H-pyrrolo[2,3-d]pyrimidin-4-yl)-1H-pyrazol-1-yl)-3-cyclopentylpropanenitrile phosphate, reference compound]
EC50 ([1]; 10 days, Donor 1, percent of cells double positive for CD41a and CD42b, read-out: Megakaryocyte differentiation EC50): 517 nM
EC50 ([1]; 10 days, Donor 1, read-out: Megakaryocyte live count EC50): 312 nM
EC50 ([1]; 10 days, Donor 1, read-out: Total live count EC50): 288 nM
EC50 ([1]; 10 days, Donor 1, read-out: Viability EC50): 676 nM
EC50 ([1]; 10 days, Donor 2, percent of cells double positive for CD41a and CD42b, read-out: Megakaryocyte differentiation EC50): 535 nM
EC50 ([1]; 10 days, Donor 2, read-out: Megakaryocyte live count EC50): 258 nM
EC50 ([1]; 10 days, Donor 2, read-out: Total live count EC50): 259 nM
EC50 ([1]; 10 days, Donor 2, read-out: Viability EC50): 611 nM
EC50 ([1]; 10 days, Mean of two donors, read-out: Megakaryocyte differentiation EC50): 526 nM
EC50 ([1]; 10 days, Mean of two donors, read-out: Megakaryocyte live count EC50): 285 nM
EC50 ([1]; 10 days, Mean of two donors, read-out: Viability EC50): 644 nM
EC50 ([1]; read-out: Total live count EC50 (overall cell proliferation)): 274 nM
effect on mutant allele burden and bone marrow fibrosis (myelofibrosis patients; Curr Hematol Malig Rep 2017): does not affect the mutant allele burden or bone marrow fibrosis
effect on red blood cell production and hemoglobin levels (myelofibrosis patients; in vivo): known to decrease red blood cell production and hemoglobin levels
